Test system: adult rat lung
Assay: adult rat lung model (pressure-volume curve, lung compliance)
Format: in vivo
Settings: pressure-volume curves (Figs. 1 and 2), three ml of the preparations of Examples 1 and 2 tested
Experimental: The synthetic surfactant preparations were tested in the adult rat lung model (Ikegami, et al., (1979) Pediatr. Res. 13, 777-780). Reference I and Reference II, consisting of DPPC, alone and dog lung surfactant, respectively, were employed as reference standards. Three ml of the preparations from each of examples 1 and 2 were tested in an adult rat lung model. […] Results are illustrated in Figures 1 and 2.

Compound: CCCCCCCCCCCCCCCC(=O)OC[C@H](COP(=O)([O-])OCC[N+](C)(C)C)OC(=O)CCCCCCCCCCCCCCC [Reference I, dipalmitoylphosphatidylcholine]
- compliance of the rat lung: no effect
